Measurements from patent publication US7820624B2, “Peptide ligands” (ICH Productions Limited, priority 2003, dated 2010).

Tests used:
[1] = test system: Neuro-2A cells; test: Adenoviral transduction of Neuro-2A cells; type: cell-based, mouse; details: 10,000 particles per cell in OptiMEM
Description: (§1) Day 6 dendritic cells (see Example 1(v) above), or mouse bone marrow derived dendritic cells or mouse Sca1+ve stem cells, see (i) and (ii) above, were plated at 5×10^4 cells per well in a 48 well plate in 500 μl complete medium and allowed to settle for 3 hours at 37° C. Transductions were carried out in complete media, with virus being added at 100,000 viral particles/cell for 24 hours. Cells were harvested by scraping, spun down at 650 g (2000 rpm) for 5 min, resuspended in 300 μl PBS, and kept on ice before analysis. Viral transduction as determined by percentage of GFP positive cells was measured by FACS analysis. To measure percentage viability, 10 μl of 7-amino-actinomycin D (7AAD; Sigma, Poole, Dorset) was added immediately prior to analysis. Viral transduction of macrophages was carried out at 10,000 particles/cell in medium containing 2.5% FCS. […] Cells were then washed twice in PBS, trypsinised, triplicate wells pooled, spun down at 350×g for 5 min and resuspended in 300 μl PBS before analysis by flow cytometry where cell viability was to be measured, 10 μl 7AAD was added just prior to analysis.
(§2) For transduction of these other cell types, cells were seeded overnight at 5×10^4 cells per well in 24 well plates in the appropriate media. […] Where cell viability was to be measured, 10 μl 7-amino-actinomycin D (7AAD; Sigma, Poole, Dorset) was added just prior to analysis. […]

[2] = test system: day 6 immature dendritic cells; test: Maturation of adenovirus-transduced dendritic cells in response to LPS (marker flow cytometry); type: cell-based, human; details: LPS 50 ng/ml; virus 100,000 particles per cell
Description: Day 6 immature dendritic cells were infected with retargeted Ad or Ad5 at 100,000 particles per cell in complete medium for 24 hours, with E. coli 026:B6 lipopolysaccharide (LPS) added following 3 hours incubation at a concentration of 50 ng/ml. As controls, dendritic cells were either incubated in complete medium for 24 hours or matured by the addition of LPS in complete medium for 24 hours, In all samples IL-4 and GM-CSF were present in the complete medium at 25 ng/ml and 100 ng/ml respectively. Cells were then phenotyped by staining as follows: a minimum of 5×10^4 cells in a volume of less than 2 ml medium were added to the recommended amount of antibody and incubated for 20 min on ice. 2 ml of ice-cold PBS was added before centrifugation at 300×g for 5 min at 4° C. The supernatant was flicked off and the pellet resuspended in 300 μl ice cold PBS. Cells from each sample were stained with antibodies to HLA-DR, CD40, CD80, CD83, CD86 and isotype matched control antibodies. Where cell viability was also measured, […] of 7AAD was added immediately prior to analysis. Cells were analysed by flow cytometry using a Epics XL (Beckman Coulter, High Wycombe, UK.) and the EXPO32 analysis software (Beckman Coulter).

[3] = test system: primary mouse dendritic cells; test: Adenoviral transduction of mouse dendritic cells; type: cell-based; details: bone marrow derived DCs
Description: Mouse dendritic cells were prepared from whole bone marrow flushed from the marrow cavities of the femur and tibia of 5-7 week old A/J mice and cultured in Hepes buffered RPMI+Glutamax (InVitrogen, Paisley, U. K.) supplemented with 10% FCS, penicillin/streptomycin and 20 ng/ml recombinant GM-CSF. Cytokines were added to the same concentration on day 3 and the dendritic cells isolated from the floating cell fraction by MACs CD11c microbeads (Miltenyi Biotec, Bisley, U. K.) on day 6.
as §1, with “analysis.” for “analysis. To measure percentage viability, 10 μl of 7-amino-actinomycin D (7AAD; Sigma, Poole, Dorset) was added immediately prior to analysis. Viral transduction of macrophages was carried out at 10,000 particles/cell in medium containing 2.5% FCS.”

[4] = test system: mouse Sca1-positive stem cells; test: Adenoviral transduction of mouse Sca1+ve stem cells; type: cell-based
Description: Mouse bone marrow cells were isolated as above and Sca1+ve cells were isolated using MACs Sca1 microbeads (Miltenyi Biotec, Bisley, U.K.). These cells were plated at 7×10^4 cells/500 μl in RPMI with Glutamax-1 containing 30% FCS and penicillin/streptomycin and the following cytokines murine SCF (50 ng/ml; Preprotech, London, UK), IL-6 (20 ng/ml; Preprotech, London, UK) and Flt3-L (10 ng/ml) (R&D Systems, Oxford, U. K.).
as §1, with “analysis.” for “analysis. To measure percentage viability, 10 μl of 7-amino-actinomycin D (7AAD; Sigma, Poole, Dorset) was added immediately prior to analysis. Viral transduction of macrophages was carried out at 10,000 particles/cell in medium containing 2.5% FCS.”

[5] = test system: HepG2 cells; test: Adenoviral transduction of HepG2 cells; type: cell-based, human; details: 10,000 particles per cell in OptiMEM; listed as peptide A
Description: as §1, §2

[6] = test system: day 4 immature dendritic cells; test: Phenotyping of LID-transfected dendritic cells (HLA-DR, CD86); type: cell-based, human; details: LID with lipofectin, peptide:DNA 7:1
Description: Immature day 4 dendritic cells were transfected with LID complex with peptide A at a charge ratio 7:1 to the DNA (plasmid pEGFP-N1), with lipofectin added at a weight ratio of 0.75 to the DNA for 4 hours in RPMI before incubating in complete medium with cytokines for 24 hours. As a control, dendritic cells were incubated in complete medium for 24 hours (immature Dendritic cells) Cells were then harvested by scraping and stained for the presence of maturation markers as follows: a minimum of 5×10^4 cells in a volume of less than 2 ml medium were added to the recommended amount of antibody and incubated for 20 min on ice. 2 ml of ice-cold PBS was added before centrifugation at 300×g for 5 min at 4° C. The supernatant was flicked off and the pellet resuspended in 300 μl ice cold 1% paraformaldehyde-PBS. Cells from each sample were stained with antibodies to HLA-DR, and CD86 and isotype matched control antibodies. Cells were analysed by flow cytometry using a Epics XL (Beckman Coulter, High Wycombe, UK.) and the EXPO32 analysis software (Beckman Coulter).

Q: How did the “Transduction, % GFP-positive cells” value [1] turn out when “SHVKLNS (Synthetic peptide binding to dendritic cells) [listing 1 of 2 here]” was run?
A: 63.5%

Q: What about the CD40 positive cells [2] of the same substance?
A: 15.6%

Q: And the CD80 positive cells [2]?
A: 16.5%

Q: And the CD83 positive cells [2]?
A: 24.6%

Q: And the CD86 positive cells [2]?
A: 98.4%

Q: What about the HLA-DR positive cells [2] of the same substance?
A: 58.1%

Q: And the Transduction efficiency [3]?
A: 71.7%

Q: And the Transduction efficiency [4]?
A: 5.4%

Q: What about the “Transduction, % cells transduced” value [5] of the same substance?
A: 88.5%

Q: “SHVKLNS (Synthetic peptide binding to dendritic cells) [listing 2 of 2 here]” was tested. Which “HLA-DR and CD86 on transfected cells” value [6] did it give?
A: upregulated CD86 and HLA-DR
